Laboratory results as given in patent publication US11533912B2, “Use of cinnamate compounds in the control of fungal diseases of crops” (Institute of Plant Protection, Gansu Academy of …, priority 2019, dated 2022).
Like-named read-outs stand apart in the source and are kept apart here.

Tests used:
C. gossypii = experiment: Ex vivo mycelial growth, growth rate method; format: cell-based; conditions: 1 mg/mL
Exserohilum turcicum = experiment: Ex vivo mycelial growth, growth rate method; format: cell-based; conditions: 1 mg/mL
Pyricularia grisea = experiment: microbe, parasite or virus in culture; format: cell-based
[1] = test system: damping-off (P. aphanidermatum, P capsici); experiment: In-vivo control of pepper damping-off in a greenhouse (sick soil); conditions: 0.80 mg/mL, 200 mL liquor per pot
Description: (§1) (2) In-Vivo Determination Method • Sick soil of damping-off (P. aphanidermatum, P capsici) was collected from the fields of tomatoes, eggplants and peppers in solar greenhouse, and mixed evenly in equal proportion. Tomatoes (Variety: Song Tian Fen Yang Yang, 100 grains), eggplants (Variety: Lanza No. 2 F1 long eggplant, 100 grains), pepper (Longjiao 2 F1, 100 grains) were seeded quantitatively with the sick soil in pots (diameter: 15 cm) in a greenhouse, additionally with sterile vermiculite as the control (each 100 grains for determining the germination rate). […] The computational formula is as below: Mortality of Seedlings (%)=[number of survival seedlings in the seeded grains−number of seeded grains×(100%−germination rate)]/number of seeded grains×100; Control Effect (%)=(mortality of control seedlings−mortality of treated seedlings)/mortality of control seedlings×100.

F. oxysporum f. sp. lini = experiment: Ex vivo mycelial growth, growth rate method; format: cell-based; conditions: 1 mg/mL
plant pathogenic fungi = experiment: organism not typed; format: cell-based; conditions: read-out: inhibition rate on mycelial growth, range over 12 fungi
[2] = test system: damping-off (P. aphanidermatum, P capsici); experiment: In-vivo control of eggplant damping-off in a greenhouse (sick soil); conditions: 0.80 mg/mL, 200 mL liquor per pot
Description: as §1

E. cichoracearum = experiment: Field efficiency test on cucumber powdery mildew; conditions: 0.50 mg/mL (active ingredients)
Description: The first application was started on Jun. 15, 2018, and E. cichoracearum was inoculated on June 17th (the diseased leaves were harvested from the solar greenhouse near the military airfield at Xiaguanying town, Yuzhong County, moisturized in the greenhouse for 2 days, then shredded, and filtered over a gauze, the filtrate was sprayed onto both sides of the cucumber leaves with the cone nozzle of an electric sprayer for inoculation). The second, third and fourth applications were conducted on June 23rd, July 2nd, and July 9th respectively, the water consumptions of which were adjusted promptly according to the amount of water desired for spraying evenly onto both sides of the control leaves. 10 days after the fourth application, the number of disease leaves at each grade of powdery mildew was investigated following the grading standard of 9 grades, to calculate the disease index and the control effect.

Valsa mali = experiment: Ex vivo mycelial growth, growth rate method; format: cell-based; conditions: 1 mg/mL
[3] = test system: Erysiphe cucurbitacearum or Sphaerotheca cucurbitae; experiment: In-vivo control of zucchini powdery mildew in a greenhouse
Description: (2) In-Vivo Determination Method • Zucchini (Variety: Wuwei Xianglin extra-early 1st generation) were cultured in pots in a greenhouse, and inoculated with Erysiphe cucurbitacearum or Sphaerotheca cucurbitae at the stage of 3 to 4 leaves. […] Both sides of the leaves were sprayed evenly with a small hand-held sprayer so that the leaves were wetted by the liquor without loss. Applications were conducted every 7 days consecutively for 4 times. 10 days after the fourth application, the number of disease leaves at each grade of powdery mildew was investigated for the whole plant following the grading standard of 9 grades, to calculate the disease index and the control effect. The computational formula is as below: Disease index=[(Number of disease leaves at each grade×Corresponding grade value)/(Total number of investigated leaves×9)]×100; Control effect=(Disease index of the clear water control−Treated disease index)/Disease index of the clear water control×100.

[4] = test system: Botryosphaeriana berengeriana; experiment: Ex vivo mycelial growth, growth rate method (line 'Botryosphaeriana berengeriana', r23); format: cell-based; conditions: Botryosphaeriana berengeriana (first line), 1 mg/mL
Mycosphaerlla melonis = experiment: Ex vivo mycelial growth, growth rate method; format: cell-based; conditions: 1 mg/mL
F. graminearum = experiment: microbe, parasite or virus in culture; format: cell-based
Thanatephorus cucumeris = experiment: Ex vivo mycelial growth, growth rate method; format: cell-based; conditions: 1 mg/mL
Phytophthora infestans [5] = format: cell-based; conditions: Phytophthora infestans (first line); 1 mg/mL
[6] = test system: Blumeria graminis f. sp. trilici; experiment: In-vivo control of wheat powdery mildew in a greenhouse; design: species or system Blumeria graminis f. sp. trilici on winter wheat
E. polygoni = experiment: In-vivo control of marrow bean powdery mildew in a greenhouse
Description: (2) In-Vivo Determination Method • Marrow bean (Variety: Thailand Jiadouwang) were cultured in pots in a greenhouse, and inoculated with E. polygoni at the stage of 4 leaves. […] Both sides of the leaves were sprayed evenly with a small hand-held sprayer so that the leaves were wetted by the liquor without loss. Applications were conducted every 7 days consecutively for 4 times. 10 days after the fourth application, the number of disease leaves at each grade of powdery mildew was investigated for the whole plant following the grading standard of 9 grades, to calculate the disease index and the control effect.

[7] = test system: Gaeumannomyces graminis var. graminis and G. graminis var. tritici; experiment: Ex vivo mycelial growth, growth rate method; format: cell-based; conditions: 1 mg/mL
[8] = test system: Botryosphaeria berengeriana; experiment: Ex vivo mycelial growth, growth rate method (line 'Botryosphaeria berengeriana', r34); format: cell-based; conditions: Botryosphaeria berengeriana (second line), 1 mg/mL
Fusarium graminearum = experiment: microbe, parasite or virus in culture; format: cell-based
Sclerotinia sclerotiorum = experiment: Ex vivo mycelial growth, growth rate method; format: cell-based; conditions: 1 mg/mL
Rhizoctonia solani = experiment: Ex vivo mycelial growth, growth rate method; format: cell-based; conditions: 1 mg/mL
Colletotrichum capsici = experiment: Ex vivo mycelial growth, growth rate method; format: cell-based; conditions: 1 mg/mL
zucchini powdery mildew = experiment: Field efficiency test on zucchini powdery mildew; format: in vivo; conditions: 0.50 mg/mL
F. verticillioide = experiment: Ex vivo mycelial growth, growth rate method; format: cell-based; conditions: 1 mg/mL
Pythium aphanidermatum = experiment: Ex vivo mycelial growth, growth rate method; format: cell-based; conditions: 1 mg/mL
Botrytis cinerea = experiment: Ex vivo mycelial growth, growth rate method; format: cell-based; conditions: 1 mg/mL
Phytophthora infestans [9] = format: cell-based; conditions: Phytophthora infestans (second line); 1 mg/mL
Pythium ultimum = experiment: Supplementary determination of antifungal activity; conditions: supplementary determination results
Description: (3) Ex Vivo Bioassay Method • The inhibition of samples for testing on the mycelial growth of plant pathogenic fungi for testing is determined with a growth rate method. […] Fungal cakes with a diameter of 4 mm are taken from the edge of the colony, inoculated into the center of a PDA plate containing different agents of different concentrations and the DMSO control, with one piece of fungal cake inoculated in each plate (with a diameter of 9 mm), and incubated in a constant temperature incubator at a temperature of 22±1.5° C. 7 days later (10˜20 days may be needed for some pathogenic fungi), the diameter of the colony is measured with a cross over method according to the mycelial growth profile of the control pathogenic fungi, then the inhibition rate of mycelial growth is calculated. The computational formula is as below: the inhibition rate of mycelial growth (%)=[(the diameter of the control colony−the diameter of the treated colony)/the diameter of the control colony]×100.

Coniella diplodiella = experiment: Ex vivo mycelial growth, growth rate method; format: cell-based; conditions: 1 mg/mL
Phytophthora capsici = experiment: Ex vivo mycelial growth, growth rate method; format: cell-based
[10] = test system: F. oxysporum f. sp. vasinfectum; experiment: Ex vivo mycelial growth, growth rate method; format: cell-based; conditions: 1 mg/mL
[11] = Fusarium oxysporum, mycelial growth
[12] = Fusarium graminearum, read-out: Inhibition Rate

SMILES: CCOC(=O)/C=C/c1ccc(OC)c(OC)c1 [ethyl 3-(3′,4′-dimethoxyphenyl) acrylate]
- Average Diameter of the Colony (C. gossypii): 1.33 cm
- inhibition at 1000 µg/mL (C. gossypii; Colletotrichum gossypii, mycelial growth): 75.4%
- Average Diameter of the Colony (Exserohilum turcicum): 0.56 cm
- inhibition at 1000 µg/mL (Exserohilum turcicum; mycelial growth): 91%
- Average Diameter of the Colony (Pyricularia grisea; 1 mg/mL): 5.47 cm
- inhibition at 1000 µg/mL (Pyricularia grisea; read-out: Inhibition Rate): 39.2%
- control effect on pepper damping-off [1]: 64.57%
- Average Diameter of the Colony (F. oxysporum f. sp. lini): 6.17 cm
- inhibition at 1000 µg/mL (F. oxysporum f. sp. lini; [11]): 31.4%
- inhibition at 1000 µg/mL (plant pathogenic fungi): 84.4 to 100%
- control effect on eggplant damping-off [2]: 48.71%
- control effect on cucumber powdery mildew (E. cichoracearum): 85.18%
- Average Diameter of the Colony (Valsa mali): 0.00 cm
- inhibition at 1000 µg/mL (Valsa mali; Cytospora mali, mycelial growth): 100%
- Control Effect ([3]; 0.20 mg/mL): 81.83%
- Control Effect ([3]; 0.333 mg/mL): 95.52%
- Control Effect ([3]; 0.50 mg/mL): 98.63%
- Average Diameter of the Colony [4]: 1.58 cm
- inhibition at 1000 µg/mL ([4]; mycelial growth): 72.3%
- Average Diameter of the Colony (Mycosphaerlla melonis): 0.05 cm
- inhibition at 1000 µg/mL (Mycosphaerlla melonis; mycelial growth): 99.4%
- Average Diameter of the Colony (F. graminearum; F. graminearum (second line), 1 mg/mL): 2.74 cm
- inhibition at 1000 µg/mL (F. graminearum; [12]): 68.1%
- Average Diameter of the Colony (Thanatephorus cucumeris): 0.94 cm
- inhibition at 1000 µg/mL (Thanatephorus cucumeris; mycelial growth): 89.1%
- Average Diameter of the Colony (Phytophthora infestans [5]): 1.33 cm
- Control Effect ([6]; 0.143 mg/mL): 79.47%
- Control Effect ([6]; 0.20 mg/mL): 91.55%
- Control Effect (E. polygoni; 0.10 mg/mL): 83.69%
- Control Effect (E. polygoni; 0.143 mg/mL): 97.09%
- Control Effect (E. polygoni; 0.20 mg/mL): 100%
- Average Diameter of the Colony [7]: 2.56 cm
- inhibition at 1000 µg/mL ([7]; mycelial growth): 64.2%
- Average Diameter of the Colony [8]: 2.95 cm
- inhibition at 1000 µg/mL ([8]; mycelial growth): 56.6%
- Average Diameter of the Colony (Fusarium graminearum; Fusarium graminearum (first line), 1 mg/mL): 1.40 cm
- inhibition at 1000 µg/mL (Fusarium graminearum; [12]): 73.8%
- Average Diameter of the Colony (Sclerotinia sclerotiorum): 1.34 cm
- inhibition at 1000 µg/mL (Sclerotinia sclerotiorum; mycelial growth): 84.4%
- Average Diameter of the Colony (Rhizoctonia solani): 0.00 cm
- inhibition at 1000 µg/mL (Rhizoctonia solani; mycelial growth): 100%
- Average Diameter of the Colony (Colletotrichum capsici): 0.83 cm
- inhibition at 1000 µg/mL (Colletotrichum capsici; Colletotrichum truncatum, mycelial growth): 87.8%
- Control Effect (zucchini powdery mildew): 91.93%
- Average Diameter of the Colony (F. verticillioide): 2.28 cm
- inhibition at 1000 µg/mL (F. verticillioide; mycelial growth): 32.5%
- Average Diameter of the Colony (Pythium aphanidermatum): 0.73 cm
- inhibition at 1000 µg/mL (Pythium aphanidermatum; mycelial growth): 89.1%
- Average Diameter of the Colony (Botrytis cinerea): 0.61 cm
- inhibition at 1000 µg/mL (Botrytis cinerea; mycelial growth): 91.9%
- Average Diameter of the Colony (Phytophthora infestans [9]): 0.00 cm
- antifungal activity on Pythium ultimum compared with carbendazim (Pythium ultimum): superior to that of the control agent, carbendazim
- Average Diameter of the Colony (Coniella diplodiella): 0.00 cm
- inhibition at 1000 µg/mL (Coniella diplodiella; mycelial growth): 100%
- Average Diameter of the Colony (Phytophthora capsici; Phytophthora capsici, 1 mg/mL): 0.75 cm
- inhibition at 1000 µg/mL (Phytophthora capsici; mycelial growth, Phytophthora capsici, 1 mg/mL): 85.8%
- antifungal activity on Phytophthora capsici compared with hymexazol (Phytophthora capsici; supplementary determination results): superior to that of the control agent, hymexazol
- Average Diameter of the Colony [10]: 2.68 cm
- inhibition at 1000 µg/mL [10, 11]: 63%
